The values below are quoted from earlier work in PubChem BioAssay AID1259410 (Chemical Carcinogenesis Research Information System (CCRIS), 2018).

The series concerns rodent tumor promotion studies, tumor incidence. Nature of the series: CCRIS tumor promotion studies.

Structures are written as SMILES.

Turning to `O=C(O)O`, the outcome (Carcinogen: N-BUTYL-N-(4-HYDROXYBUTYL)NITROSAMINE, 3817-11-6, Doses [Carcinogen]: 0.05% IN DRINKING WATER FOR 4 WK, Doses [Promoter]: 0, 3% IN DIET FOR 32 WK BEGINNING 3 D POST LAST CARCINOGEN DOSE (STUDY DURATION: 36 WK, 3 D), Route [Carcinogen]: ORAL, Route [Promoter]: ORAL, Species: RAT, Strain/Sex: F344/MALE) is listed as “urinary bladder: papilloma, carcinoma”; the outcome (Carcinogen: N-BUTYL-N-(4-HYDROXYBUTYL)NITROSAMINE, 3817-11-6, Doses [Carcinogen]: 0.05% IN DRINKING WATER FOR 4 WK, Doses [Promoter]: 0, 3.36% IN DIET BEGINNING POST LAST CARCINOGEN DOSE AND CONTINUING FOR 32 WK (STUDY DURATION: 37 WK), Route [Carcinogen]: ORAL, Route [Promoter]: ORAL, Species: RAT, Strain/Sex: WISTAR/MALE) is “urinary bladder: papilloma”; the outcome (Carcinogen: N-BUTYL-N-(4-HYDROXYBUTYL)NITROSAMINE; 3817-11-6; Doses [Carcinogen]: 0.05% IN DRINKING WATER FOR 4 WK; Doses [Promoter]: 0; 4% IN DIET BEGINNING POST LAST CARCINOGEN DOSE AND CONTINUING FOR 32 WK STUDY DURATION: 37 WK), Route [Carcinogen]: ORAL, Route [Promoter]: ORAL, Species: RAT, Strain/Sex: WISTAR/MALE) is listed as “urinary bladder: papilloma”; the outcome (Carcinogen: O-PHENYLPHENOL, 90-43-7, Doses [Carcinogen]: 1.25% IN DIET FOR 104 WK, Doses [Promoter]: 0, 0.16% IN DIET FOR 104 WK (STUDY DURATION: 104 WK), Route [Carcinogen]: ORAL, Route [Promoter]: ORAL, Species: RAT, Strain/Sex: F344/MALE) was “bladder: carcinoma”; the outcome (Carcinogen: O-PHENYLPHENOL, 90-43-7, Doses [Carcinogen]: 1.25% IN DIET FOR 104 WK, Doses [Promoter]: 0, 0.32% IN DIET FOR 104 WK (STUDY DURATION: 104 WK), Route [Carcinogen]: ORAL, Route [Promoter]: ORAL, Species: RAT, Strain/Sex: F344/MALE) is “bladder: carcinoma”; the outcome (Carcinogen: O-PHENYLPHENOL, 90-43-7, Doses [Carcinogen]: 1.25% IN DIET FOR 104 WK, Doses [Promoter]: 0, 0.64% IN DIET FOR 104 WK (STUDY DURATION: 104 WK), Route [Carcinogen]: ORAL, Route [Promoter]: ORAL, Species: RAT, Strain/Sex: F344/MALE) is “bladder: carcinoma”.

As to `COc1cc([C@@H]2Oc3cc([C@H]4Oc5cc(O)cc(O)c5C(=O)[C@@H]4O)ccc3O[C@H]2CO)ccc1O`, for the setting “Carcinogen: 1-Methyl-1-nitrosourea, 684-93-5, Doses [Carcinogen]: 50 mg/lg once 30 days after initial silymarin dose, Doses [Promoter]: 0, 0.03, 0.1, 0.3, 1% (w/w) in diet for 140 d beginning at 21 d of age, Doses [Promoter]: 0, 0.03, 0.1, 0.3, 1% (w/w) in diet for 140 d beginning at 21 d of age, Route [Carcinogen]: Intraperitoneal, Route [Promoter]: Oral, Species: Rat, Strain/Sex: Sprague-Dawley/Female (30/27), (30/25), (30/27), (30/23), Strain/Sex: Sprague-Dawley/Female (30/27), (30/25), (30/27), (30/23)”, the outcome is recorded as “mammary gland: tumors. silymarin demonstrated a slight enhancement of mammary ca”.
